Where two headings read alike, the source gives them in different places. Marks after values point to notes of the source that are not given here.
What was measured:
[1] = oral administration; ref Kirchgessner et al., 1994; cited from earlier work
[2] = Bioelution in simulated gastric fluid
female mice = conditions: 15-day exposure, ref Finley et al. (2012), Shrivastava et al., 1996; cited from earlier work
rats [3] = conditions: oral, ref Speijers et al. (1982), cited from earlier work
rats [4] = conditions: cited from earlier work
[5] = 0.08–0.19 mg Co/kg bw/day, 3-month, ref Tvermoes et al., 2014, cited from earlier work
[6] = tested on: children with sickle cell anemia; conditions: 1.4–1.8 mg Co/kg/day, ref Gross et al., 1955, Kriss et al.; cited from earlier work
[7] = Mass balance study: urinary and fecal Co excretion after single oral gavage; assay type: in vivo, rat; conditions: single oral bolus 10 mg/kg bw (2.48 mg Co/kg bw), 72 h
Crl:CD(SD) rats = assay: Subchronic 90-day oral RDT study with reproductive toxicity screening; assay type: in vivo, rat; conditions: for erythroid hyperplasia in the bone marrow, incidence: 90 days; for body weight at autopsy reduced: 90-day exposure; for dose level from which hematological parameters were significantly affected: 90-day oral
[8] = Target organ study: tissue distribution of cobalt after 90-day oral exposure; assay type: in vivo, rat; conditions: 90-day exposure to 7.44 mg Co/kg bw/day
[9] = Plasma toxicokinetic study; assay type: in vivo, rat; conditions: for C max / K el / t 1/2 / Bioavailability (absolute): 10 mg test item/kg PO (2.48 mg Co/kg); for Bioavailability (absolute): vs CoCl2 IV
[10] = Bioelution in simulated intestinal fluid; conditions: simulated intestinal fluid pH 7.4, 2 h
[11] = cobalt dichloride hexahydrate vs tricobalt tetraoxide
[12] = listed as Co Dichloride Hexahydrate
[13] = females, 0.74 mg Co/kg bw/day, end of 90-day oral exposure, experimental group
[14] = females, 2.48 mg Co/kg bw/day, end of 90-day oral exposure, experimental group
[15] = females, 7.44 mg Co/kg bw/day, end of 90-day oral exposure, experimental group
[16] = females, 7.44 mg Co/kg bw/day, recovery group, end of 28-day recovery period
[17] = females, 7.44 mg Co/kg bw/day, recovery group, end of 90-day oral exposure
[18] = males, 0.74 mg Co/kg bw/day, end of 90-day oral exposure, experimental group
[19] = males, 2.48 mg Co/kg bw/day, end of 90-day oral exposure, experimental group
[20] = males, 7.44 mg Co/kg bw/day, end of 90-day oral exposure, experimental group
[21] = males, 7.44 mg Co/kg bw/day, recovery group, end of 28-day recovery period
[22] = males, 7.44 mg Co/kg bw/day, recovery group, end of 90-day oral exposure

## O.O.O.O.O.O.[Cl-].[Cl-].[Co+2] [CoCl2, Cobalt dichloride hexahydrate]
[1]
  absorbed Co excreted in the feces via the bile: around 1%
[2]; [11]
  difference in in vitro bioaccessibility (factor): 440
[2]; simulated gastric fluid pH 1.5, 2 h, 37°C
  Bioelution of Co in gastric fluid (% release), 2 h: 98.5 % release
Female mice
  dose at which histopathological changes in the thyroid were reported: approximately 50 mg Co/kg bw/day
Rats [3]
  Acute LD50 (mg Co/kg bw): 190 mg Co/kg bw
  Acute LD50 (mg substance/kg bw): below 1000 mg substance/kg bw
Rats [3]; [12]
  Acute LD50 (mg substance/kg bw): 766 [Speijers et al. (1982)] mg substance/kg bw
Rats [4]; male SD rats, 3-month exposure, ref Domingo et al., 1984
  dose at which adverse cardiac effects were observed: 32 mg Co/kg bw/day
Rats [4]; rats, 7 days, ref Shrivastava et al., 2010
  daily dose at which hematological effects were reported: 12.5 mg Co/kg/day
[5]; men
  absorption of Co: 20%
[5]; women
  absorption of Co: 45%
[6]
  thyroid effects: decrease in iodine uptake and the development of goiters
[7]; females
  Fecal Excretion (%): 98.5 % of Co applied
  Sum of Urinary and Fecal Excretion (%): 110.7 % of Co applied
  Urinary Excretion (%): 12.2 % of Co applied
[7]; males
  Fecal Excretion (%): 82.4 % of Co applied
  Sum of Urinary and Fecal Excretion (%): 99.5 % of Co applied
  Urinary Excretion (%): 17.1 % of Co applied
Crl:CD(SD) rats; 2.48 mg Co/kg bw/day, females
  erythroid hyperplasia in the bone marrow, incidence: 7/10
Crl:CD(SD) rats; 2.48 mg Co/kg bw/day, males
  erythroid hyperplasia in the bone marrow, incidence: 4/10
Crl:CD(SD) rats; 7.44 mg Co/kg bw/day, both sexes
  erythroid hyperplasia in the bone marrow, incidence: 7/10
Crl:CD(SD) rats; 90-day oral gavage, all doses
  premature deaths: None of the animals treated with any dose of CoCl2 died prematurely
Crl:CD(SD) rats; 90-day oral gavage, rats
  LOAEL (systemic): 2.5 mg Co/kg bw/day
  NOAEL (reproductive): > 7.5 mg Co/kg bw/day
Crl:CD(SD) rats; [11]
  difference in RDT lowest observed adverse effect level (factor): 310
Crl:CD(SD) rats; [13]
  HGB, %Diff vs control: +0.9%
  HGB, mean: 9.62 mmol/L
  RBC, %Diff vs control: +0.6%
  RBC, mean: 8.38 ×10E6/µl
  Reti, %Diff vs control: −18.9%
  Reti, mean: 12 %0 of RBC
Crl:CD(SD) rats; [14]
  HGB, %Diff vs control: +0.3%
  HGB, mean: 9.56 mmol/L
  RBC, %Diff vs control: −2.6%
  RBC, mean: 8.11 ×10E6/µl
  Reti, %Diff vs control: +33.1%
  Reti, mean: 19.7 %0 of RBC
Crl:CD(SD) rats; females, 7.44 mg Co/kg bw/day
  body weight at autopsy reduced: 9%
Crl:CD(SD) rats; [15]
  HGB, %Diff vs control: +13.4%
  HGB, mean: 10.81 mmol/L
  RBC, %Diff vs control: +9.8%
  RBC, mean: 9.15 ×10E6/µl
  Reti, %Diff vs control: +4.1%
  Reti, mean: 15.4 %0 of RBC
Crl:CD(SD) rats; [16]
  HCT, mean: • 45.02 • .841%
  HGB, mean: • 9.56 • .936 mmol/l
  RBC, mean: • 8.01 • .948 ×10E6/µl
  Reti, mean: • 15 • .232 %0 of RBC
Crl:CD(SD) rats; [17]
  HCT, mean: • 52.3 ^** • .0025%
  HGB, mean: • 11.1 ^** • .0017 mmol/l
  RBC, mean: • 9.648 ^* • .030 ×10E6/µl
  Reti, mean: • 15.6 • .933 %0 of RBC
Crl:CD(SD) rats; females, 7.44 mg Co/kg bw/day, test day 118
  body weight reduced at the end of the 4-week recovery period: 13%
Crl:CD(SD) rats; females
  dose level from which hematological parameters were significantly affected: 7.44 mg/kg bw/day
Crl:CD(SD) rats; male rats, 90-day exposure at 7.44 mg Co/kg bw/day
  changes in hematological parameters compared with control: up to 30%
Crl:CD(SD) rats; [18]
  HCT, %Diff vs control: +1.2%
  HCT, mean: 50.51%
  HGB, %Diff vs control: +1.4%
  HGB, mean: 10.50 mmol/L
  PLT, %Diff vs control: −13.5%
  PLT, mean: 793.6 ×10E3/µl
  RBC, %Diff vs control: −1.4%
  RBC, mean: 9.33 ×10E6/µl
  Reti, %Diff vs control: +7.8%
  Reti, mean: 15.2 %0 of RBC
Crl:CD(SD) rats; [19]
  HCT, %Diff vs control: +10.3%
  HCT, mean: 55.07%
  HGB, %Diff vs control: +10.7%
  HGB, mean: 11.46 mmol/L
  PLT, %Diff vs control: −13.9%
  PLT, mean: 789.2 ×10E3/µl
  RBC, %Diff vs control: +9.2%
  RBC, mean: 10.33 ×10E6/µl
  Reti, %Diff vs control: −23.4%
  Reti, mean: 10.8 %0 of RBC
Crl:CD(SD) rats; males, 7.44 mg Co/kg bw/day
  body weight at autopsy reduced: 11%
Crl:CD(SD) rats; [20]
  HCT, %Diff vs control: +24.2%
  HCT, mean: 61.98%
  HGB, %Diff vs control: +25.6%
  HGB, mean: 13.00 mmol/L
  PLT, %Diff vs control: −30.5%
  PLT, mean: 637.1 ×10E3/µl
  RBC, %Diff vs control: +18.9%
  RBC, mean: 11.25 ×10E6/µl
  Reti, %Diff vs control: −25.5%
  Reti, mean: 10.5 %0 of RBC
Crl:CD(SD) rats; [21]
  HCT, mean: • 49.58 • .334%
  HGB, mean: • 10.64 • .087 mmol/l
  PLT, mean: • 917.6 • .551 ×10E3/µl
  RBC, mean: • 9.086 • .373 ×10E6/µl
  Reti, mean: • 15.1 • .0544 %0 of RBC
Crl:CD(SD) rats; [22]
  HCT, mean: • 58.68** • .002%
  HGB, mean: • 12.74** • .0015 mmol/l
  PLT, mean: • 727.2 • .223 ×10E3/µl
  RBC, mean: • 10.89** • .0022 ×10E6/µl
  Reti, mean: • 15.6 • .400 %0 of RBC
Crl:CD(SD) rats; males
  dose level from which hematological parameters were significantly affected: 2.48 mg Co/kg bw/day
[8]
  elevation of tissue Co concentration vs control, most tissues and organs: around 20 fold
[9]; females
  C max: 2.61 ng/mL
  K el: 0.0508 h⁻¹
  t 1/2: 13.7 h
  Bioavailability (absolute): ~12%
[9]; females, listed as CoCl2.6H2O
  Bioavailability (absolute): 11.7 (absolute) %
[9]; males
  C max: 2.51 ng/mL
  K el: 0.0489 h⁻¹
  t 1/2: 14.2 h
  Bioavailability (absolute): approximately 7%
[9]; males, listed as CoCl2.6H2O
  Bioavailability (absolute): 6.81 (absolute) %
[9]; oral, rats, average of males and females
  Bioavailability calculated from AUC as % of CoCl2 IV AUC, average of m + f: absolute bioavailability: Absolute bioavailability 9.3%
[9]; single oral bolus, rats, males and females not distinguished
  oral bioavailability: ≤ 12%
[10]
  Bioelution of Co in intestinal fluid (% release): 79 (2 h) % release
[10]; [12]
  Bioelution of Co in intestinal fluid / cobalt release (µg Co/g sample): 198 700 (2 h) µg Co/g sample

Reference: article PMC7098370 (Toxicological Sciences, 2020)
